Results from ChEMBL document CHEMBL2311533, “Pentacyclic hemiacetal sterol with antifouling and cytotoxic activities from the soft coral Nephthea sp” (Bioorg Med Chem Lett, 2013).
≈ marks a conversion by molar mass, not a printed value.

Legend:
[1] = Toxicity against Bugula neritina larvae
[2] = Antifouling activity against Bugula neritina larvae; assay type: functional
HeLa = experiment: Cytotoxicity against human HeLa cells incubated for 48 hrs by MTT assay; assay type: functional, cell-based
[3] = Selectivity index, ratio of cytotoxic LC50 to antifouling EC50 in Bugula neritina larvae

CC(=O)O[C@H]1O[C@H](CCC(C)C)[C@@H](C)[C@H]2CC[C@H]3[C@@H]4CCC5=CC(=O)C=C[C@]5(C)[C@H]4CC[C@]123
LC50 [1]: > 25 µg/mL | EC50 [2]: > 25 µg/mL | IC50 (HeLa): 19.6 µg/mL (≈ 43.1 µM)

CC(=O)O[C@@H]1O[C@H](CCC(C)C)[C@@H](C)[C@H]2CC[C@H]3[C@@H]4CCC5=CC(=O)C=C[C@]5(C)[C@H]4CC[C@]123
LC50 [1]: > 25 µg/mL | EC50 [2]: > 25 µg/mL | IC50 (HeLa): 10.1 µg/mL (≈ 22.2 µM)

CC(C)CC[C@H]1OC(O)[C@]23CC[C@H]4[C@@H](CCC5=CC(=O)C=C[C@@]54C)[C@@H]2CC[C@@H]3[C@@H]1C (mixture of isomers) [NEPHTHOACETAL]
LC50 [1]: > 25 µg/mL | EC50 [2]: 2.5 µg/mL | Selectivity Index [3]: >10 | IC50 (HeLa): 12.3 µg/mL
